Data as given in PMC10594211, “Characterization of pyridylpiperazine-based efflux pump inhibitors for Acinetobacter baumannii” (JAC-Antimicrobial Resistance, 2023).

What was measured:
AcrB (AcrAB-TolC) = target: T1, AcrB (AcrAB-TolC) (Escherichia coli, UniProt P31224); assay: antibiotic boosting in E. coli cells; type: cell-based
T1 construct: full-length RND pump in E. coli cells; strain only in supplement; with Multidrug efflux pump subunit AcrA; Outer membrane protein TolC

AdeJ = target: T2, AdeJ (Acinetobacter baumannii, UniProt Q2FD94); assay: antibiotic MIC and checkerboard in A. baumannii cells; type: cell-based; conditions: 40 µM EPI
T2 construct: native chromosomal AdeJ in A. baumannii cells (other RND pumps present); isogenic point mutants by allelic exchange; with Membrane fusion protein AdeI; Outer membrane efflux protein AdeK

AdeIJK (AdeJ) = target: T3, AdeIJK (AdeJ) (Acinetobacter baumannii, UniProt Q2FD94); assay: antibiotic MIC in E. coli ΔacrAB expressing adeIJK (REMA); type: cell-based, Escherichia coli; conditions: 40 µM EPI; fusidic acid, novobiocin, erythromycin, SDS
T3 construct: adeIJK operon under acrA promoter in chromosome of E. coli ΔacrAB; tripartite RND pump; with Membrane fusion protein AdeI; Outer membrane efflux protein AdeK

AdeFGH (AdeG) = target: T4, AdeFGH (AdeG) (Acinetobacter baumannii, UniProt A0A090C131); assay: antibiotic MIC in E. coli ΔacrAB expressing adeFGH (REMA); type: cell-based, Escherichia coli ΔacrAB; conditions: 40 µM EPI; chloramphenicol, oxacillin, SDS
T4 construct: adeFGH operon under acrA promoter in chromosome of E. coli ΔacrAB; tripartite RND pump; with Membrane fusion protein AdeF; Outer membrane efflux protein AdeH
T4 sequence (A0A090C131 entry or part of it): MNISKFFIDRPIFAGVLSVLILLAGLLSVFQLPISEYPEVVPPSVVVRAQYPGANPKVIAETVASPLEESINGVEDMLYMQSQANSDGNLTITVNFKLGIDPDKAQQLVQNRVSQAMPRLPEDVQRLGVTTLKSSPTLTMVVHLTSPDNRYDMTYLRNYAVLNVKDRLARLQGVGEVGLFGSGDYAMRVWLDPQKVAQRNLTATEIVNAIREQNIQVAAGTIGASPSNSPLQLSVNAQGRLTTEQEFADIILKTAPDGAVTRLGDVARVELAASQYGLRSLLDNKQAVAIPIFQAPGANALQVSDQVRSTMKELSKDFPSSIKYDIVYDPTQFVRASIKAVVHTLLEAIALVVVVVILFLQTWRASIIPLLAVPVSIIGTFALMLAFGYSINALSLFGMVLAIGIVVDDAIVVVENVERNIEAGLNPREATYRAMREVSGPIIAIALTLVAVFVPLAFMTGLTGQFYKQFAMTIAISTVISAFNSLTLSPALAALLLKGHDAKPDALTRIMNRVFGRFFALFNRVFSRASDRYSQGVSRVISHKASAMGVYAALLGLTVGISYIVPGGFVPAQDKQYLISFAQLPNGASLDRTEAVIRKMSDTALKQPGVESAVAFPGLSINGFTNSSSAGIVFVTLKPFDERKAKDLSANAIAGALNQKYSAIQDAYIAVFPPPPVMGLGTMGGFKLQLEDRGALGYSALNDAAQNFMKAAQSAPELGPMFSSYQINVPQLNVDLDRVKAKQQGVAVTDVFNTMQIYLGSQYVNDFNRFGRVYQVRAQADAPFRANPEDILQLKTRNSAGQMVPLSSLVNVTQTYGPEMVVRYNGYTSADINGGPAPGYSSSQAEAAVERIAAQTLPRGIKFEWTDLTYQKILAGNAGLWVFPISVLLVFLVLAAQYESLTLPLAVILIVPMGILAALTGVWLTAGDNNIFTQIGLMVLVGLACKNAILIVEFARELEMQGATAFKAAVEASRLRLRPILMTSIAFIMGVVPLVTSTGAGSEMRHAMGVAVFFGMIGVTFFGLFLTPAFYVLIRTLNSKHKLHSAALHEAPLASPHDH
T4 sequence (A0A0N9Q906 entry or part of it, further chain): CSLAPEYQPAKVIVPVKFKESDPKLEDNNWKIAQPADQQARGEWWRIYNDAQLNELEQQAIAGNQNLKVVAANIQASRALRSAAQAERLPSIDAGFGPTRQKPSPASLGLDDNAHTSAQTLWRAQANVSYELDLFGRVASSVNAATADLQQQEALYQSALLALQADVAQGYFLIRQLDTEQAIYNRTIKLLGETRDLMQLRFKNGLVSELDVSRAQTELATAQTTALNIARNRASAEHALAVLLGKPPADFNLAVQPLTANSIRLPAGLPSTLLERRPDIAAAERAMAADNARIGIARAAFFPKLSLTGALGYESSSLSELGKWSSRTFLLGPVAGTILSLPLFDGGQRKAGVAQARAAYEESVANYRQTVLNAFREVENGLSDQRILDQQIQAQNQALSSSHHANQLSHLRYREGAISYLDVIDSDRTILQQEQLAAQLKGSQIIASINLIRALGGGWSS
T4 sequence (A0A0N9QP12 entry or part of it, further chain): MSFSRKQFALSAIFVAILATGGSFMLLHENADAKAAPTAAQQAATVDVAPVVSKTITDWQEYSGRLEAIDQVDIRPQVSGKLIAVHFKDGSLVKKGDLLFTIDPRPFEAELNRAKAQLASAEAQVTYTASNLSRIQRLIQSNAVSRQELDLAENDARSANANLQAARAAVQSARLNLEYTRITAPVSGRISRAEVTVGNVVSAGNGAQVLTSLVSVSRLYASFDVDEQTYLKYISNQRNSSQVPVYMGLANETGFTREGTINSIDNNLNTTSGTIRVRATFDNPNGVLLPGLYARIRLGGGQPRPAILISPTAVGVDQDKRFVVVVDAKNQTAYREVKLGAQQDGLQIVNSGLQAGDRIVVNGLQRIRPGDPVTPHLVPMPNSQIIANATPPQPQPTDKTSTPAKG

T1 sequence (P0AE06 25-397): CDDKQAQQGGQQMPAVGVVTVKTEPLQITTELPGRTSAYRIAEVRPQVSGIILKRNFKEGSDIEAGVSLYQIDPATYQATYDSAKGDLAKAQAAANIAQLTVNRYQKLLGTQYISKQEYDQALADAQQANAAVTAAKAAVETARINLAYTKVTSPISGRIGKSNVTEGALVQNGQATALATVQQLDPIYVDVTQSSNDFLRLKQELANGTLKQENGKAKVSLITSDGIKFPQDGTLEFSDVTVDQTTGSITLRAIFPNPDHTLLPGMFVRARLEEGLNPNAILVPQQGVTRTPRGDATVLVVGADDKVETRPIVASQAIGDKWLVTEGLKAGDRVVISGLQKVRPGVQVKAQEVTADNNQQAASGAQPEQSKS
T1 sequence (P02930 23-493, further chain): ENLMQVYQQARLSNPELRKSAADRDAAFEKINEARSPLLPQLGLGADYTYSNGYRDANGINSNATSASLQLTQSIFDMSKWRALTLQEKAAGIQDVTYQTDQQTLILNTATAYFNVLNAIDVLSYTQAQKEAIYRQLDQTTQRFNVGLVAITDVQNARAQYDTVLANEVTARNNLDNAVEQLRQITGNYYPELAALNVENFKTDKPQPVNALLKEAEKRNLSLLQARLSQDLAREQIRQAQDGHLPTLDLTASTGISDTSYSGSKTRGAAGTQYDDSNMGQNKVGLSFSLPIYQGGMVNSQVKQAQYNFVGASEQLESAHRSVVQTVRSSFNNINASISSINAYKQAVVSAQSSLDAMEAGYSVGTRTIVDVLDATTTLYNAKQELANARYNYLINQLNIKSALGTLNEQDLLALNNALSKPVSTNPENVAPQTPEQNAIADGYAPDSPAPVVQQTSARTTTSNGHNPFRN
T1 sequence (P31224 whole entry): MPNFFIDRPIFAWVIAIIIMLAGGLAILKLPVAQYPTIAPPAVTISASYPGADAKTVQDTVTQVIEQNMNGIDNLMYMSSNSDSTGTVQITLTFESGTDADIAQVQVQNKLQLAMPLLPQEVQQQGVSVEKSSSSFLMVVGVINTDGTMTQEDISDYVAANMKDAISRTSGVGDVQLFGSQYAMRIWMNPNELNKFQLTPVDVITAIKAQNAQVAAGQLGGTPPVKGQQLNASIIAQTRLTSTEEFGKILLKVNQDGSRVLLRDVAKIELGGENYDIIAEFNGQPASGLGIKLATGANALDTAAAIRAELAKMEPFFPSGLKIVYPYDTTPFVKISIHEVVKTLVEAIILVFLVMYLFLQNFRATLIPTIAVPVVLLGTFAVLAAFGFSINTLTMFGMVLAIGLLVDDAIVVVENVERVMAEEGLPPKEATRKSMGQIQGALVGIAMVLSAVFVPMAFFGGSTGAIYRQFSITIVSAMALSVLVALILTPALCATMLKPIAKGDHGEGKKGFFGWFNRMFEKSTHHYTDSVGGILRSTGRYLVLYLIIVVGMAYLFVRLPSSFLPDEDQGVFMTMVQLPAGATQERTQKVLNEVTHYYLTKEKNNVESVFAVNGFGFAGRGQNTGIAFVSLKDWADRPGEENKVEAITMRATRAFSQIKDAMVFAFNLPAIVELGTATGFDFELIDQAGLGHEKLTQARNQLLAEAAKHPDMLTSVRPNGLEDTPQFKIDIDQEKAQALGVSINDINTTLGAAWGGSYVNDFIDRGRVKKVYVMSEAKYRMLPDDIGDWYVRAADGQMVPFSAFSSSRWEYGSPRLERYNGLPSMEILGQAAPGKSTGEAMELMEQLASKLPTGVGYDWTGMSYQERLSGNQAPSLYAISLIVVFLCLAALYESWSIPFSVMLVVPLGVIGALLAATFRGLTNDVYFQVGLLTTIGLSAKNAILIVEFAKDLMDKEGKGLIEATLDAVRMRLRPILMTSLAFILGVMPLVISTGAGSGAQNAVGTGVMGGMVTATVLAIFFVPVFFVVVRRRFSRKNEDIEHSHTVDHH

Compound	EC90 (AcrB (AcrAB-TolC)) [µM]	MIC (AdeJ)	MIC (AdeIJK (AdeJ))	MIC (AdeFGH (AdeG))
NCc1cccc(-c2ccc3nc(N4CCNCC4)c(Cl)cc3c2)c1 [compound 1, BDM91531]	0.24	antibiotic boosting in A. baumannii by BDM91531, BDM91892 or PAβN is through AdeIJK inhibition	both BDM91531 and BDM91892 can inhibit the activity of AdeFGH and AdeIJK	both BDM91531 and BDM91892 can inhibit the activity of AdeFGH and AdeIJK
NCCc1ccccc1C#Cc1cnc(N2CCNCC2)c(Cl)c1 [compound 11, BDM91892]	1.5	antibiotic boosting in A. baumannii by BDM91531, BDM91892 or PAβN is through AdeIJK inhibition	both BDM91531 and BDM91892 can inhibit the activity of AdeFGH and AdeIJK	both BDM91531 and BDM91892 can inhibit the activity of AdeFGH and AdeIJK
